Key:
[1] = parameters: species or system human; settings: in vivo, sc; for Tmax of the parent insulin glargine: human
From the text: This PK/PD comparative study was a randomized, double-blind, single-dose, two-treatment, four-period, replicate crossover, euglycemic clamp study. Subjects were randomly assigned to one of two dosing sequences and received 0.4 U/kg reference drug on two occasions and 0.4 U/kg test drug on two occasions. The dosing nurses were not blind to the treatment allocation, whereas the subjects and the clamping operators (who adjusted the glucose infusion rate) were blinded. Subjects were admitted to the clinical research unit on the night before each period. On day 1 of each period, all doses of test and reference drug were administered by subcutaneous injection, and then, subjects underwent a euglycemic clamp procedure until 24 h post-dose. There was a washout period of 10–14 days between study periods. The test drug, manufactured by Wanbang Biopharmaceuticals, was supplied as a 100 U/ml solution in 3 ml cartridges. The reference drug was procured commercially as cartridges. The test drug or reference drug was administrated by subcutaneous injection using a pen about 5 cm from the left or right side of the umbilicus, as a 0.4 U/kg dose. In each period, serial blood samples for the quantification of insulin glargine, its metabolites (M1 and M2), and C-peptide were collected at 30 min prior to dosing and 0, 1, 3, 5, 6, 7, 8, 9, 10, 11, 12, 13, 14, 16, 18, 21, and 24 h after dose using vacuum tubes with an EDTA anticoagulant. Concentrations of insulin glargine and its metabolites (M1 and M2) in plasma were simultaneously quantified by an ultra-high-performance liquid chromatography tandem mass spectrometry (UHPLC-MS/MS) method developed and fully validated before the clinical sample analysis. […] Pharmacokinetic parameters were calculated with WinNonlin Version 8.2 (Pharsight Corporation, Mountain View, California, United States) using a non-compartmental analysis method. […] Time to reach Cmax (Tmax) was also calculated. […]

healthy volunteers [2] = test: 24 h euglycemic clamp, glucose infusion rate (pharmacodynamics); type: in vivo, human; settings: single 0.4 U/kg s.c., N = 38; for AUCGIR(0–24 h), geometric mean / Time to GIRmax / AUCGIR(0–12 h), geometric mean / AUCGIR(12–24 h), geometric mean / GIRmax, geometric mean: healthy volunteers; for AUCGIR(0–24 h), geometric mean: 24 h euglycemic clamp 0.3 mmol/L below fasting glucose; for AUCGIR(0–24 h), geometric mean / AUCGIR(0–12 h), geometric mean / AUCGIR(12–24 h), geometric mean / GIRmax, geometric mean: raw GIR not smoothed; for Time to GIRmax / AUCGIR(0–12 h), geometric mean / AUCGIR(12–24 h), geometric mean / GIRmax, geometric mean: 24 h euglycemic clamp; for Time to GIRmax: median (range); for AUCGIR(0–12 h), intra-subject variability / AUCGIR(0–24 h), intra-subject variability / AUCGIR(12–24 h), intra-subject variability / GIRmax, intra-subject variability: replicate crossover
From the text: This PK/PD comparative study was a randomized, double-blind, single-dose, two-treatment, four-period, replicate crossover, euglycemic clamp study. Subjects were randomly assigned to one of two dosing sequences and received 0.4 U/kg reference drug on two occasions and 0.4 U/kg test drug on two occasions. The dosing nurses were not blind to the treatment allocation, whereas the subjects and the clamping operators (who adjusted the glucose infusion rate) were blinded. Subjects were admitted to the clinical research unit on the night before each period. On day 1 of each period, all doses of test and reference drug were administered by subcutaneous injection, and then, subjects underwent a euglycemic clamp procedure until 24 h post-dose. There was a washout period of 10–14 days between study periods. For each subject, the 24 h euglycemic clamp procedure aimed to maintain the clamp value at 0.3 mmol/L below the subject’s mean fasting glucose level in each period. Each subject began fasting from 20:00 on the day prior to dosing in each period and continued fasting during the clamp study. Body weight and vital signs were measured after the bladder was emptied, and the clamp study was performed after resting for at least 30 min. One upper limb was cannulated for the infusion of glucose (20% dextrose solution in water). The contralateral upper limb was cannulated for PK blood sample collection and blood glucose concentration measurement. Blood glucose level was measured by using an automatic blood glucose analyzer every 20 min from 0 to 3.0 h, every 10 min from 3.0 to 12.0 h, every 15 min from 12.0 to 16.0 h, every 30 min from 16.0 to 21.0 h, and every 15 min from 21.0 to 24.0 h. After each glucose measurement, the glucose infusion rate (GIR) was manually adjusted by the operator based on the experience of the change rate of blood glucose to maintain the blood glucose concentration within ±10% of the clamp target. During the entire procedure, subjects should stay awake, decumbent, or semi-decumbent as much as possible and relieve themselves in time with the help of medical staff. PD parameters were calculated with WinNonlin Version 8.2 using the trapezoidal rule. Raw GIR profiles were not smoothed before calculation of PD parameters. Area under the glucose infusion rate–time curve (AUCGIR(0–24 h)) and peak of glucose infusion rate (GIRmax) were measured as primary endpoints. Partial area under the glucose infusion rate–time curve (AUCGIR(0–12 h) and AUCGIR(12–24 h)) was the secondary PD parameter. Another meaningful PD endpoint was time to GIRmax. The primary and secondary PD parameters, AUCGIR(0–24 h), GIRmax, AUCGIR(0–12 h), and AUCGIR(12–24 h), were log transformed prior to analysis. The same linear mixed-effects model as PK comparison was used for the PD comparison. For each PD parameter, the difference in geometric means along with the 90% CIs was back transformed to produce the ratio of geometric means and the CI comparing the test drug to reference drug. PD similarity was to be concluded if the […] for both primary and secondary PD parameters were contained within the interval of 80.00%–125.00%. Intra-subject and inter-subject variability were reported for each primary and secondary PD parameters.

endogenous insulin = test: Plasma C-peptide reduction during clamp (suppression of endogenous insulin); type: in vivo, human; settings: single 0.4 U/kg s.c., healthy volunteers, plasma C-peptide by ELISA during 24 h clamp, mean ± SD
Description: In each period, serial blood samples for the quantification of insulin glargine, its metabolites (M1 and M2), and C-peptide were collected at 30 min prior to dosing and 0, 1, 3, 5, 6, 7, 8, 9, 10, 11, 12, 13, 14, 16, 18, 21, and 24 h after dose using vacuum tubes with an EDTA anticoagulant.
C-peptide in plasma was quantified by a fully validated enzyme-linked immunosorbent assay (ELISA) method, of which the calibration range was 28.9–925 pmol/L.
C-peptide concentration was measured in parallel to insulin concentrations throughout the experiment to compare the extent and consistency of suppression of endogenous insulin between the two drugs.
The quality of the performance of the clamp study was estimated from two aspects. On one hand, the blood glucose level during the entire clamping process was evaluated by calculating the mean difference between the blood glucose concentration and the clamp target, mean square deviation, and coefficient of variation of the blood glucose concentrations. On the other hand, the plasma C-peptide concentration profiles and the ratio of C-peptide reduction were evaluated.

healthy subjects = test: Safety assessment in healthy subjects; settings: single 0.4 U/kg s.c. doses, healthy male subjects
Description: Prior to dose and at various time points post-dose and post-study, assessments of safety and tolerability were conducted by monitoring adverse events (AEs), vital signs, physical examinations, laboratory tests (hematology, blood biochemistry, urinalysis, and coagulation function), and 12-lead ECG.

[3] = Matrix stability of insulin glargine in whole blood and plasma; type: in vitro ADME; settings: human whole blood and plasma; addressed by strict temperature control and EDTA anticoagulant during sample collection and pre-treatment
From the text: The bioanalytical method applied in this study was with a relatively higher sensitivity of 75.0 pg/ml for the parent insulin glargine ([Bhatia et al., 2018]; [Crutchlow et al., 2018]). The instability of the insulin glargine in whole blood and plasma was addressed by strict temperature control and selection of EDTA anticoagulant during sample collection and pre-treatment. […] After subcutaneous injection, the concentrations of parent insulin glargine increased to a relatively high level within 3 h, and then, a relatively flat concentration–time profile lasting for at least 12 h post-dose was observed, which implied a prolonged absorption of insulin glargine.

[4] = acidic pH; precipitates in the subcutaneous tissue after injection to form a depot; ref Levien et al., 2002; cited from earlier work
From the text: Then, the drug is slowly released from the depot. […] These observed phenomena are consistent with those of a previous study ([Bolli et al., 2012]). Based on the comparison ...

healthy volunteers [5] = test: 24 h euglycemic clamp, glucose infusion rate (pharmacodynamics); type: in vivo, human; settings: single 0.4 U/kg s.c., linear mixed-effects model, N = 38

Substance	Tmax of the parent insulin glargine [1]	AUCGIR(0–24 h), geometric mean (healthy volunteers [2])	Time to GIRmax (healthy volunteers [2])	AUCGIR(0–12 h), geometric mean (healthy volunteers [2])	AUCGIR(12–24 h), geometric mean (healthy volunteers [2])	GIRmax, geometric mean (healthy volunteers [2])	AUCGIR(0–12 h), intra-subject variability (healthy volunteers [2])	AUCGIR(0–24 h), intra-subject variability (healthy volunteers [2])	AUCGIR(12–24 h), intra-subject variability (healthy volunteers [2])	GIRmax, intra-subject variability (healthy volunteers [2])	Ratio of C-peptide reduction (endogenous insulin)	Clinically significant changes in vital signs, physical examinations, laboratory tests or 12-lead ECG (healthy subjects)	Safety profiles with regard to AEs (healthy subjects)	Duration of relatively flat concentration–time profile post-dose [1]	Stability in whole blood and plasma [3]	Solubility [4]	AUCGIR(0–12 h), ratio of geometric means test/reference (healthy volunteers [5])	AUCGIR(0–24 h), ratio of geometric means test/reference (healthy volunteers [5])	AUCGIR(12–24 h), ratio of geometric means test/reference (healthy volunteers [5])	GIRmax, ratio of geometric means test/reference (healthy volunteers [5])
Lantus [Reference drug]	3 (1,16) h	34.4 mg/kg/min·h	11.8 (4, 19.0)	13.45 mg/kg/min·h	21.19 mg/kg/min·h	2.54 mg/kg/min	39.0%	28.3%	20.2%	25.5%	57.5% ± 14.4	no changes	comparable							
insulin glargine														at least 12 h	instability	soluble at an acidic pH				
recombinant insulin glargine [Test drug]	8 (1,16) h	36.3 mg/kg/min·h	12.3 (3.85, 21.5)	13.52 mg/kg/min·h	22.45 mg/kg/min·h	2.66 mg/kg/min	70.7%	36.4%	27.3%	26.5%	56.5% ± 14.1						100.52%	105.41%	105.91%	105.00%
